How the values were obtained:
[1] = test system: human platelet aggregation; details: result in words; cited from earlier work
[2] = test system: smooth muscle of the vas deferens; details: cited from earlier work
blood platelets = details: in vitro; cited from earlier work
tracheal smooth muscle = details: in vitro; cited from earlier work
[3] = test system: female reproductive system; details: cited from earlier work
femoral blood flow = experiment: Test C: Increase in Canidae Femoral Blood Flow; format: in vivo; details: anesthetized dog, intraarterial, 0.001 to 10 mcg
Procedure: The peripheral vasodilator or constrictor effects of test compounds were determined in mongrel dogs of either sex, weighing between 10 and 20 kg anesthestized intravenously with 35 mg/kg of sodium pentobarbital. An external iliac artery was dissected immediately above the femoral arch for a length of approximately 5 cm and a previously calibrated, non-connulating electromagnetic flowmeter sensor with a lumen between 2.5 and 3.5 mm was placed snugly around the vessel. Cannulas were placed in a branch of the artery arising distally to the location of the flowmeter sensor for intraarterial drug administrations, in the contralateral femoral artery for systemic blood pressure recordings and in the trachea for artificial respiration with room air. Femoral blood flow and systemic blood pressure were continuously recorded with an electromagnetic flowmeter and pressure tranducer, respectively.
After an adequate control period, test compounds were injected intraarterially at one log-spaced doses ranging from 0.001 to 10 mcg., in a volume of 0.5 ml and at 5 to 10 minute intervals. Maximum changes in bloodflow, as well as any variations in blood pressure, were tabulated for each dose in absolute values (ml/min. and mmHg). The calculations were made taking as control values those existing immediately before administration of each dose. The direction of the observed change (plus for increase and minus for decrease) was also noted. The dose changing bloodflow by 100 ml/min (ED100 ml/min) was calculated graphically and was used for scoring activity as follows: […]

[4] = test system: human platelet aggregation; experiment: Test A: Inhibition of Human Platelet Aggregation; format: cell-based; details: human platelet rich plasma, in vitro, collagen-induced, 37° C, 15 minutes
Procedure: The ability of test compounds to inhibit platelet aggreagation was determined by a modification of the turbidometric technique of Born (Nature, 194: 927 [1962]). Blood was collected from human volunteer who had not ingested aspirin or aspirin-containing products within the preceding two weeks in heparinized containers and was allowed to settle for one (1) hour. The platelet rich plasma (prp) supernates were collected and cooled. Siliconized glassware was used throughout.
In a representative assay 1.9 ml of PRP and 0.2 ml of test compound at the appropriate concentrations (0.001 to 100 mcgm), or 0.2 ml of distilled water (control procedure) were placed in sample cuvettes. The cuvettes were placed in a 37° C incubation block for 15 minutes, and then in a spectrophotometer linked to a strip chart recorder. After 30-60 seconds, 0.2 ml of a solution, prepared by diluting a calf-skin collagen solution 1:9 with Tyrodes' Solution, was added to each cuvette. Platelet aggregation was evidenced by a decrease in optical density.
An ED50 value was then determined graphically.

blood pressure = experiment: Test D: Decrease in Normal Feline Blood Pressure and Heart Rate (anesthetized cat); format: in vivo; details: intravenous, 0.01 to 10.0 mcg/kg, judged only on hypotension
Procedure: The acute effects of test compounds on blood pressure and heart rate were determined in cats of either sex anesthetized with a mixture of pentobarbital sodium (35 mg/kg, i.v.) and barbital sodium (100 mg/kg, i.v.). Cannulas were placed in the trachea to allow adequate spontaneous ventilation, in a femoral artery for blood pressure recording with a strain gage transducer, and in a saphenous vein for drug administration. Heart rate was recorded by means of a cardiotachometer driven by the R wave of the electrocardiogram. After a period of 10 minutes of stable recordings of blood pressure and heart rate, the test compound was administered intravenously at doses increasing from 0.01 to 10.0 mcg/kg, spaced one log and injected at 10 minutes intervals. All doses were injected in a volume of 0.1 ml/kg. Modifications of blood pressure and heart rate induced by the test compound were expressed both in absolute units (mmHg and beats/minutes) and as percent of values recorded immediately before administration of each dose. Biphasic responses were tabulated in the order in which they occur. The direction of the observed changes was also noted (+ for increases and - for decreases).
Activity of compounds in this test was judged only on the basis of the degree of hypotension observed. Thus, the ED50 mmHg (dose decreasing blood pressure by 50 mmHg) was calculated graphically and the compound scored according to the following scale: […]

gastric secretion = experiment: Test B: Inhibition of Rodent Gastric Secretion (pylorus-ligated rat); format: in vivo; details: subcutaneous, 2 x 1.5 mg/kg (total 3.0 mg/kg), 4 hours after pyloric ligation
Procedure: A procedure based on that described by Lipmann (J. Pharm. Pharmacol., 21:335 [ 1968]) was used to assess the influence of test compounds on gastric secretion. Rats of one sex weighing 150 to 200 g were randomly divided into groups of six animals each and fasted for 48 hours previously to the experiments, water being available adlibitum. The animals were anesthetized with ether, the abdomen was opened through a midline incision and the pylorus was ligated. Test compounds were diluted from stock solution so as to administer a dose of 1.5 mg/kg in a volume equivalent to 1 ml/kg. Subcutaneous injections were applied immediately after surgery and again 2 hours later, so that a total dose of 3.0 mg/kg was administered. Dilutions were made with phosphate buffer (pH 7.38) as recommended by Lee et al. (Prostaglandins 3:29 [ 1973]), in order to insure adequate stability of drugs at the subcutaneous depot. Each compound was tested in one group of rats; an additional control group received only the vehicle.
Four hours after pyloric ligation the animals were killed with ether, the cardias ligated and the stomachs removed. The volume of gastric secretion was measured and the contents centrifuged at 5000 rpm for 10 minutes. Total acid in the supernatant was titrated against a 0.1 N sodium hydroxide solution and the amount expressed in mEq.
Volume and total acid values of the treated group were compared with those of the controls by the "T" test. Antisecretory activity was scored according to the following scale: […]

Compound | effect on tracheal smooth muscle (tracheal smooth muscle) | Activity Value Test C (ED100 ml/min, dose changing bloodflow by 100 ml/min) (femoral blood flow) | Activity Value Test A (ED50, inhibition of platelet aggregation) [4] | Activity Value Test D (ED50 mmHg, dose decreasing blood pressure by 50 mmHg) (blood pressure) | Activity Value Test B (% decrease in acidity) (gastric secretion) | also measured
CCCCC[C@H](O)/C=C/[C@H]1[C@H](O)CC(=O)[C@@H]1CCCCCCC(=O)O [PGE1, prostaglandin E1] | relax | – | – | – | – | inhibition of platelet aggregation by natural prostaglandins [1]: displays a similar activity; contraction of the smooth muscle of the vas deferens [2]: contracts the smooth muscle of the vas deferens; thrombogenesis (blood platelets): inhibits thrombogenesis in vitro
CCCCC[C@H](O)/C=C/[C@H]1[C@H](O)CC(=O)[C@@H]1C/C=C\CCCC(=O)O [PGE2] | relax | – | – | – | – | –
CCCCC[C@H](O)/C=C/[C@@H]1[C@@H](C/C=C\CCCC(=O)O)[C@@H](O)C[C@H]1O [PGF2α] | contracts the smooth muscle | – | – | – | – | spontaneous abortions ([3]; early pregnancy): induces spontaneous abortions in early pregnancy; effect on fertility / gestation ([3]; female reproductive system): contragestational effects
dl-7-{5-oxo-2R[3R-hydroxy-2-(bicyclo[3.2.0]hept-3-yl)-1E-propenyl]cyclopent- [TR-4101] | – | 3 (0.01 - 0.1) | 1 (>1.0) | 1 (1.01 - 10.0) | 1 (26-50, not significant) | –
O=C(O)CCCCCC[C@H]1C(=O)CC[C@@H]1/C=C/[C@@H](O)C1CC2CCC2C1 (mixture of isomers) [TR-4097, dl-7-{5-oxo-2R-[3S-hydroxy-3-(bicyclo[3.2.0]hept-3-yl)-1E-propenyl]cyclopent-1R-yl}heptanoic acid] | – | 1 (1.01 - 10.0) | 1 (>1.0) | 0 (>10.0) | 2 (26-50, significant) | –
COC(=O)CCCCCC[C@H]1C(=O)C[C@@H](O)[C@@H]1/C=C/[C@H](O)CCCCC1CCCC2CCCCC21 (some centres unmarked) [TR-4166] | – | 0 (>10.0) | 1 (>1.0) | 0 (>10.0) | 0 (<26) | –
